Laboratory results as given in paper PMC9387934, “Randomized single oral dose phase 1 study of safety, tolerability, and pharmacokinetics of Iminosugar UV-4 Hydrochloride (UV-4B) in healthy subjects” (PLoS Neglected Tropical Diseases, 2022).
Where a name gives a salt, the structure may show the parent alone. Read-outs that look alike come from different tables or passages of the source.

Key:
[1] = in vivo; parameters: species or system AG129 mice; details: Crl:CD1(ICR), dose-adjusted PK data from the 25 mg/kg/day dose of the mouse 14-day study, read-out: Cmax at which relevant pharmacological activity is expected
Description: UV-4B was evaluated in four in vitro genetic toxicology assays (two Ames bacterial reverse mutation, mouse lymphoma assay, and chromosomal aberration in cultured human lymphocytes), and in an in vivo (mouse bone marrow micronucleus). UV-4B was not found to be mutagenic or clastogenic in any of these assays
2.2 Rationale for Dose Selection
This is a single-ascending dose study in which UV-4B will be administered for the first time in humans. The study will evaluate the safety, tolerability, and PK of increasing oral doses of […]
The results from this study will form the basis for the selection of doses of UV-4B to be used in future studies in healthy subjects and in patients diagnosed with uncomplicated DENV infection.
In the studies summarized below, the dose stated refers to the free-base used in vitro or administered during in vivo experiments.
The proposed doses for Cohorts 1 through 8 will range from 3 mg to 1000 mg of UV-4B (dose stated refers to the free base; see Table 2). […]
UV-4B, administered orally TID (intragastric via oral gavage) for a total number of 7 days (first dose administered 1 hour prior to infection) was effective in promoting survival of AG129 mice challenged with DENV. Of the doses evaluated (2.5, 5, 10, 20, and 40 mg/kg TID), the minimal effective dose (survival of 90% to 100%) was determined to be 10 mg/kg TID (UV4-LIA-0002). […]

[2] = tested on: CYP2C19; parameters: method as in Investigator’s Brochure (IB); details: in vitro; ref Investigator’s Brochure (IB); cited from earlier work
[3] = cited from earlier work
[4] = 14-day GLP toxicology study in mice (UV4-COV-036); details: Crl:CD1(ICR), mouse, in vivo, 300 mg/kg/day, read-out: Daily exposure at NOAEL [3 x AUC(0-8)]
Description: Fourteen-day studies were conducted in mice and dogs. […]
The inverted AST/ALT ratio […]
and lymphocyte depletion were reversible. Thymus weight decrease in females was reversible but thymus weight decreases in males were not. However, because the apparent […]
microscopic thymus findings, thymus weight differences at the recovery necropsy were considered not toxicologically important. In mice at 25 mg/kg/dose (75 mg/kg/day) there were decreased thymus weights (males), follicular epithelium vacuolation in the thyroid, and lymphoid depletion of the thymus (males). All findings were reversible but a NOEL was not present at this dose level. At the no NOAEL of 300 mg/kg/day, there were clinical hematology, chemistry, and anatomic pathology findings similar to those observed in the dogs. All findings were reversible.
Based on these observations, the NOAEL for UV-4B following 14 days of TID administration in mice is considered to be 300 mg/kg/day. This dose level corresponded to Day 14 mean Cmax […]
ng•h/mL, respectively. Daily exposure at NOAEL [calculated as 3 x AUC(0-8)] is estimated at 163,305 ng•h/mL. In dogs, the NOAEL following 14 days of TID administration is considered to be 30 mg/kg/day. At the end of the dosing phase, this dose level corresponded to average […]
Daily exposure [calculated as 3 x AUC(0-8)] is estimated at 32,820 ng•h/mL.
This material is the property of the Unither Virology. […]

[5] = parameters: method as in Investigator’s Brochure (IB); details: ref Investigator’s Brochure (IB), cited from earlier work
[6] = parameters: method as in Investigator’s Brochure (IB); details: 50 mg/kg/day for 12 days; ref Investigator’s Brochure (IB); cited from earlier work
[7] = parameters: method as in Investigator’s Brochure (IB); details: beagle dogs, single dose of 400 mg/kg; ref Investigator’s Brochure (IB); cited from earlier work
[8] = mice, Day 14, at NOAEL 300 mg/kg/day, ref Investigator’s Brochure (IB)
[9] = mouse, 25 TID mg/kg, Day 28 (Recovery)
[10] = mouse, 25 TID mg/kg, dosing phase (Day 14)
[11] = mouse, 100 TID mg/kg (NOAEL), Day 28 (Recovery)

COCCCCCCCCCN1C[C@H](O)[C@@H](O)[C@H](O)[C@H]1CO [UV-4, N-(9’-methoxynonyl)-1-deoxynojirimycin]
Cmax [1]: 4000 to 8000 ng/mL | Direct inhibition of CYP2C19 [2]: No clinically relevant direct inhibition

COCCCCCCCCCN1C[C@H](O)[C@@H](O)[C@H](O)[C@H]1CO [UV-4B, N-(9’-methoxynonyl)-1-deoxynojirimycin hydrochloride]
NOAEL ([3]; mice, 14 days of TID administration, ref Investigator’s Brochure (IB)): 300 mg/kg/day | No observed effect level (NOEL) ([3]; mice, 14 days, a NOEL was not present at this dose level, ref Investigator’s Brochure (IB)): < 25 mg/kg/dose | AUC(0-8) [3, 8]: 54,435 ng•h/mL | Mean Cmax [3, 8]: 32,617 ng/mL | Decreased thymus weight (M) [3, 9]: − | Follicular epithelium vacuolation in thyroid [3, 9]: − | Lymphoid depletion of the thymus (M) [3, 9]: − | Decreased thymus weight (M) [3, 10]: ↓ (M) | Lymphoid depletion of the thymus (M) [3, 10]: P (M) | Decrease in red cell mass (RBC Count, HGB, and HCT) [3, 11]: − | Decrease in thymus weight [3, 11]: − | Follicular epithelium vacuolation in thyroid [3, 11]: − | Lymphoid depletion in thymus [3, 11]: − | Neutrophilic infiltration and erosion/ulcer rectum (F) [3, 11]: − | AUC(0-t) [4]: 163 µg·h/mL | Fertility finding ([5]; male and female rats, 50 mg/kg/day before mating through Gestation Day 13): decreased pregnancy and fertility indices | Finding in males ([5]; rats, all doses (8, 20, and 50 mg/kg/day)): decreased sperm motility | Finding in rat offspring [6]: increase in skeletal malformations | Neurologic finding [7]: tremors
